Assay [1] has as its system NS5B chimeric replicon of clinical isolate 1a—6 in Huh7-cure cells. Description: Transient replicon assay, chimeric replicon of clinical isolate 1a—6 (CI2). In kind it is cell-based, HCV genotype 1a. As to conditions: Hepatitis C virus, 48 h, read-out: EC50-T CI2. A general note: Replicon systems follow genome replication, usually without infectious particles.
Assay [2] relates to wild type replicon of genotype 1b (con1b) in Huh7-cure cells. Description: Transient replicon assay, wild type replicon of genotype 1b (Con1b). It is filed as cell-based, HCV genotype 1b. As to conditions: Hepatitis C virus, transient wild type replicon genotype 1b, 48 h, luciferase, read-out: EC50-T Con1b.
Assay [3] relates to NS5B chimeric replicon of clinical isolate 1a_H77 in Huh7-cure cells. Description: Transient replicon assay, chimeric replicon of clinical isolate 1a_H77 (CI1). The following applies: Hepatitis C virus, 48 h, read-out: EC50-T CI1. In kind it is cell-based, HCV genotype 1a.

pEC50: −log10 of the molar value.

The record followed here is US8357687B2, “Macrocyclic indole derivatives useful as hepatitis C virus inhibitors” (priority 2008, dated 2013).

As a reminder, the pEC50 is the EC50 on a negative log10 scale, so that one unit is a factor of ten. As to `COc1ccc2c(c1)OCC(=O)N(C)CCCCN(C)S(=O)(=O)NC(=O)c1ccc3c(C4CCCCC4)c-2n(C)c3c1` [Compound 53, 24-cyclohexyl-22-methoxy-4,9,18-trimethyl-4,5,6,7,8,9-hexahydro-13,17:16,19-di(metheno)-1,10,4,9,11,18-benzoxathiatetraazacyclohenicosine-3,12(2H,11H,18H)-dione 10,10-dioxide], the pEC50 is 7.18 in assay [1], 7.08 in assay [2] and 7.36 in assay [3].
`COc1ccc2c(c1)OCC(=O)N(C)CCOCCN(C)S(=O)(=O)NC(=O)c1ccc3c(C4CCCCC4)c-2n(C)c3c1` [Compound 54, 25-cyclohexyl-23-methoxy-4,10,19-trimethyl-5,6,9,10-tetrahydro-2H,8H-14,18:17,20-di(metheno)-1,7,11,4,10,12,19-benzodioxathiatetraazacyclodocosine-3,13 (4H,12H,19H)-dione 11,11-dioxide]: the pEC50 in assay [1] is 7.09; in assay [2], 6.99; in assay [3], 7.17.
